The target of experiment [1] is T1, human cloned 5-HT2A receptor, expressed in L929 cells (Homo sapiens, UniProt P28223).
T1 construct: expressed in transfected cells; host or cells: L929 cells
The experiment can be described thus: In vitro binding affinity for 5-HT2A receptor ([125I]R91150 radioligand binding). As to conditions: human cloned 5-HT2A receptor in L929 cells, [125I]R91150; for IC50: read-out: 5-HT2A pIC50 (converted). As to the method:
In Vitro Binding Affinity for 5-HT2A and 5-HT2C Receptors
The interaction of the compounds of Formula (I) with 5-HT2A and 5-HT2C receptors was assessed in in vitro radioligand binding experiments. […] During the incubation, the radioligands bind to the receptor. When equilibrium of binding is reached, the receptor bound radioactivity is separated from the non-bound radioactivity, and the receptor bound activity is counted. The interaction of the test compounds with the receptors is assessed in competition binding experiments. Various concentrations of the test compound are added to the incubation mixture containing the tissue preparation and the radioligand. Binding of the radioligand will be inhibited by the test compound in proportion to its binding affinity and its concentration. The affinities of the compounds for the 5-HT2 receptors were measured by means of radioligand binding studies conducted with: (a) human cloned 5-HT2A receptor, expressed in L929 cells using [^125I]R91150 as radioligand and (b) human cloned 5-HT2C receptor, expressed in CHO cells using [^3H]mesulergine as radioligand.

The target of experiment [2] is T2, human cloned 5-HT2C receptor, expressed in CHO cells (Homo sapiens, UniProt P28335).
T2 construct: expressed in transfected cells; host or cells: CHO cells
T2 sequence (P28335 33-458): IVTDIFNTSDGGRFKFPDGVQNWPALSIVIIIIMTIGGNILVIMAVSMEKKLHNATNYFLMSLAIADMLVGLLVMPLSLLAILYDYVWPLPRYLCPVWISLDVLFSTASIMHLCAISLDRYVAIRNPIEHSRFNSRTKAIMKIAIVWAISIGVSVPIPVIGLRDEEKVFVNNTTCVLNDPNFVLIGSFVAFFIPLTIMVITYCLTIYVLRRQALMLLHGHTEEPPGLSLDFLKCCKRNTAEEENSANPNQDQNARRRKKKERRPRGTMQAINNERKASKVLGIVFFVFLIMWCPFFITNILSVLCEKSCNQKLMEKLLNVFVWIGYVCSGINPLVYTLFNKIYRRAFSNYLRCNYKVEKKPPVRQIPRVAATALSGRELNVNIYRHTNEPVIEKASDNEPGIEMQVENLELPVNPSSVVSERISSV
The experiment can be described thus: In vitro binding affinity for 5-HT2C receptor ([3H]mesulergine radioligand binding). As to conditions: human cloned 5-HT2C receptor; for IC50: read-out: 5-HT2C pIC50 (converted). A digest of the protocol:
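Receptor-bound radioligand counted after separation from unbound label once equilibrium is reached. Test compound added across a concentration range to tissue preparation plus radioligand; inhibition of binding reflects affinity and concentration.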

For experiment [3], the target named is T3, human Dopamine D2L receptor (Homo sapiens, UniProt P14416).
T3 construct: expressed in transfected cells; host or cells: CHO cells
The experiment can be described thus: In vitro binding affinity for human D2L receptor ([3H]Spiperone binding). As to conditions: human D2L receptor-transfected CHO cell membranes; for IC50: read-out: D2L pIC50 (converted). In a few lines: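 Competition curves were expressed as percent specific binding, measured by scintillation counting after filtration onto GF/B filters and ice-cold Tris washes. Test compounds competed with [3H]Spiperone, added from a 2 nmol/L dilution, for 30 min at 37° C on transfected CHO membranes in pH 7.7 Tris-HCl salt buffer. Butaclamol at 10^−6 mol/l final marked non-specific binding.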

Experiment [4] deals with T4, NET (norepinephrine transporter) (Rattus norvegicus, UniProt Q63380).
T4 construct: Cortex from rat brain was collected and homogenised; from tissue; host or cells: rat brain cortex
Kind of experiment: In vitro determination of NET reuptake inhibition ([3H]Nixosetine binding, rat brain cortex). The conditions noted are these: rat brain cortex; for IC50: read-out: NET pIC50 (converted). A digest of the protocol:
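Competition curves and percentage specific binding came from scintillation counting of filter-trapped radioactivity. The membranes were rat cortical homogenate in pH 7.4 Tris buffer with 120 mM NaCl and 5 mM KCl. Test compounds competed with [3H]nisoxetine for binding.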

Here are results for 26 compounds from patent US8569267B2, “Tetracyclic tetrahydrofuran derivatives containing cyclic amine side chain” (Janssen Pharmaceutica, NV, priority 2005, dated 2013).

Some results are limits rather than exact numbers.

T1 sequence (P28223 whole entry): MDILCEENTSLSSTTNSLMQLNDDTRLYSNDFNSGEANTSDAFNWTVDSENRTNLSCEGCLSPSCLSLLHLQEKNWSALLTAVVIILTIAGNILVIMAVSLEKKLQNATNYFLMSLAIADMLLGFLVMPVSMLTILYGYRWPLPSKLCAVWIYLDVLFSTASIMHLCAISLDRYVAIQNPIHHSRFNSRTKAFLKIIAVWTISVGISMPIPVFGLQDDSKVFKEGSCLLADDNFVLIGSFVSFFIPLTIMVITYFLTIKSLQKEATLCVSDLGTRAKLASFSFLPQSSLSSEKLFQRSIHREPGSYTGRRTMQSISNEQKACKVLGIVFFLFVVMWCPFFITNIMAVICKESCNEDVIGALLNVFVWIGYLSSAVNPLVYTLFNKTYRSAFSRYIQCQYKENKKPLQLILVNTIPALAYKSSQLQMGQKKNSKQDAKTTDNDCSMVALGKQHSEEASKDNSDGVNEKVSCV
T4 sequence (Q63380 1-617): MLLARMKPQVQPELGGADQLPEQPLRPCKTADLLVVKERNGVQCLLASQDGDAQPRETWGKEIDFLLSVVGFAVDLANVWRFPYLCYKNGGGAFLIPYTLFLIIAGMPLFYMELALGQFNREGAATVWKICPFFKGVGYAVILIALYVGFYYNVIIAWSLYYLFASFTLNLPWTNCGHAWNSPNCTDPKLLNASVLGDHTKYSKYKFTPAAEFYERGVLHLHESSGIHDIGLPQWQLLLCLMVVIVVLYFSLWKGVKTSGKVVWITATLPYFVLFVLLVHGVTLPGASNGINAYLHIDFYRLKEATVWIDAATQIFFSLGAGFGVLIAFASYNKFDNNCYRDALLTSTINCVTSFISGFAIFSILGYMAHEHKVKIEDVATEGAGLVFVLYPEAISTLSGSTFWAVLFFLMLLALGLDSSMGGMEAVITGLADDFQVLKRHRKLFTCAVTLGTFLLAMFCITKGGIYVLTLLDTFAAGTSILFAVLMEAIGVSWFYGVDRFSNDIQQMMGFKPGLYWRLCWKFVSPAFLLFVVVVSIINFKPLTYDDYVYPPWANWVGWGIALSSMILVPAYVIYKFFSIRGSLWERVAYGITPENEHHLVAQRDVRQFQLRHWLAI
T3 sequence (P14416 whole entry): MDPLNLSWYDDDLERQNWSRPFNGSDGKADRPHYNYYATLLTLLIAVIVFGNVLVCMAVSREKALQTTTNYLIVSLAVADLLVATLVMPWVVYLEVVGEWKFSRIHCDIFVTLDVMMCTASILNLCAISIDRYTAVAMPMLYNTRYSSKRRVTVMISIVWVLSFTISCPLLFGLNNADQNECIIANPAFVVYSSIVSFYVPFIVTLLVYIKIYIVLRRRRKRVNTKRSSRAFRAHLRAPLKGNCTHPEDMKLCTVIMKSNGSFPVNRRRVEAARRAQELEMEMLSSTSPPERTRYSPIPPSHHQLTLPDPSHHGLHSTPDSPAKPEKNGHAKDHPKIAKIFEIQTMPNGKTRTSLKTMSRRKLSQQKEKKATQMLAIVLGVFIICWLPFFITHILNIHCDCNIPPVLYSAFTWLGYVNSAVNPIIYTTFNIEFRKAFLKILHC

Consider `O=C(O)C(=O)O.OCC1CCCN(C[C@H]2C[C@@H]3c4ccccc4Cc4ccc(F)cc4[C@@H]3O2)C1` (single isomer, unassigned) [Compound 149], for which the “5-HT2A pIC50” value in experiment [1] was found to be 9.08. Further, in experiment [2], the “5-HT2C pIC50” value is 9.10. Also, the “D2L pIC50” value in experiment [3] was 8.61. Moreover, the “NET pIC50” value in experiment [4] is listed as less than 5.52.
For `OCCCC1CCN(CC2CC3c4ccccc4Cc4ccc(F)cc4C3O2)CC1` (stereo not drawn) [Compound 155, [2R-(2α, 3aα, 12bβ)]3-[1-(11-fluoro-3,3a,8,12b-tetrahydro-2H-1-oxa-dibenzo[e,h]-azulen-2-ylmethyl)-piperidin-4-yl]-propan-1-ol.oxalate (1:1)], the IC50 is 1.51 nM in experiment [1], 2.88 nM in experiment [2], 1.48 nM in experiment [3] and 1860 nM in experiment [4].
With `Fc1ccc2c(c1)C1OC(CN3CCN(c4nc5ccccc5s4)CC3)CC1c1ccccc1C2` (centres unmarked) [Compound 125], the IC50 in experiment [1] was 17.4 nM; in experiment [2], 77.6 nM; in experiment [3] it was 257 nM; in experiment [4], more than 10000 nM.
With `Cc1ccc(OC2CCN(CC3CC4c5ccccc5Cc5ccc(F)cc5C4O3)C2)cc1` (centres unmarked) [Compound 28], the IC50 was 18.6 nM in experiment [1], 1.78 nM in experiment [2], 7.59 nM in experiment [3] and more than 10000 nM in experiment [4].
Regarding `COc1ccc2c(c1)C1OC(CN3CCC(O)CC3)CC1c1ccccc1O2.O=C(O)C(=O)O` (racemic) [Compound 288], the “5-HT2A pIC50” value in experiment [1] was 7.18. Further, the “5-HT2C pIC50” value in experiment [2] came to 6.71. Besides, the “D2L pIC50” value in experiment [3] was 6.08. The “NET pIC50” value in experiment [4] was less than 5.
On to `Fc1ccc2c(c1)C1OC(CN3CCN(C(=S)NCc4ccccc4)CC3)CC1c1ccccc1C2` (centres unmarked) [Compound 113], for which the IC50 was 11 nM in experiment [1], 24 nM in experiment [2], 50.1 nM in experiment [3] and 2400 nM in experiment [4].
Consider `OCCC1CCN(C[C@H]2C[C@@H]3c4ccccc4Cc4ccc(F)cc4[C@@H]3O2)CC1` [Compound 154], for which the IC50 in experiment [1] is 0.912 nM; in experiment [2], 1.62 nM; in experiment [3], 1.35 nM; in experiment [4], more than 10000 nM.
Regarding `O=C1CCN(C[C@H]2C[C@@H]3c4ccccc4Cc4ccc(F)cc4[C@@H]3O2)C1` [Compound 7, [2R-(2α, 3aα, 12bβ)]1-(11-fluoro-3,3a,8,12b-tetrahydro-2H-1-oxa-dibenzo[e,h]-azulen-2-ylmethyl)-pyrrolidin-3-one], the IC50 is less than 10 nM in experiment [1], 2.95 nM in experiment [2], 141 nM in experiment [3] and 1620 nM in experiment [4].
For the compound `CCCCNC(=O)N1CCN(CC2CC3c4ccccc4Cc4ccc(F)cc4C3O2)CC1` (centres unmarked) [Compound 89], the IC50 was 2.82 nM in experiment [1], 6.61 nM in experiment [2], 38.9 nM in experiment [3] and more than 10000 nM in experiment [4].
Taken in the same sequence, the figures for `Fc1ccc2c(c1)C1OC(CN3CCN(c4nc5ccccc5o4)CC3)CC1c1ccccc1C2` (centres unmarked) [Compound 126] were 8.91 nM, 79.4 nM, 214 nM and 9770 nM.
For `CS(=O)(=O)N1CCN(CC2CC3c4ccccc4Cc4ccc(F)cc4C3O2)CC1` (centres unmarked) [Compound 102], the IC50 in experiment [1] is 4.68 nM; in experiment [2], 12.6 nM; in experiment [3], 10.7 nM; in experiment [4], more than 10000 nM.
In the case of `C=CS(=O)(=O)N1CCN(CC2CC3c4ccccc4Cc4ccc(F)cc4C3O2)CC1` (centres unmarked) [Compound 104], the IC50 in experiment [1] is 8.32 nM; in experiment [2] it was 28.2 nM; in experiment [3], 30.9 nM; in experiment [4], more than 10000 nM.
`N#Cc1cccc(CN2CCN(CC3CC4c5ccccc5Cc5ccc(F)cc5C4O3)CC2)c1` (centres unmarked) [Compound 70]: the IC50 in experiment [1] is 7.24 nM; in experiment [2], 15.8 nM; in experiment [3] it was 20.4 nM; in experiment [4] it was 708 nM.
With `COc1ccc(NC(=S)N2CCN(CC3CC4c5ccccc5Cc5ccc(F)cc5C4O3)CC2)cc1` (centres unmarked) [Compound 112], the IC50 in experiment [1] was 3.31 nM; in experiment [2], 21.9 nM; in experiment [3] it was 20.4 nM; in experiment [4], 933 nM.
Take `OCCC1CN(C[C@H]2C[C@@H]3c4ccccc4Cc4ccc(F)cc4[C@@H]3O2)CCO1` (some centres unmarked) [Compound 129]: the IC50 was less than 10 nM in experiment [1], 7.59 nM in experiment [2], 29.5 nM in experiment [3] and 417 nM in experiment [4].
In the case of `O=C(C1CCN(CC2CC3c4ccccc4Cc4ccc(F)cc4C3O2)CC1)N1CCN(CC=Cc2ccccc2)CC1` (centres unmarked) [Compound 204], the IC50 was 3.16 nM in experiment [1], 10.5 nM in experiment [2], 66.1 nM in experiment [3] and 3470 nM in experiment [4].
Turning to `CC1(O)CCN(C[C@H]2C[C@@H]3c4ccccc4Cc4ccc(F)cc4[C@@H]3O2)C1` (some centres unmarked) [Compound 39], the IC50 in experiment [1] is 0.631 nM; in experiment [2], 0.513 nM; in experiment [3], 3.09 nM; in experiment [4], 1950 nM.
`O=C(NC1CC1)N1CCN(CC2CC3c4ccccc4Cc4ccc(F)cc4C3O2)CC1` (stereo not drawn) [Compound 94, [2R-(2α, 3aα, 12bβ)]4-(11-fluoro-3,3a,8,12b-tetrahydro-2H-1-oxa-dibenzo[e,h]-azulen-2-ylmethyl)-piperazine-1-carboxylic acid cyclopropylamide.oxalate (1:1)]: the IC50 in experiment [1] was 0.389 nM; in experiment [2], 2.19 nM; in experiment [3] it was 35.5 nM; in experiment [4], 10700 nM.
Consider `CCOC(=O)CNC(=S)N1CCN(CC2CC3c4ccccc4Cc4ccc(F)cc4C3O2)CC1` (centres unmarked) [Compound 110], for which the IC50 in experiment [1] was 6.17 nM; in experiment [2] it was 47.9 nM; in experiment [3] it was 36.3 nM; in experiment [4], 5750 nM.
On to `O=C(C1CCCC1)N1CCN(CC2CC3c4ccccc4Cc4ccc(F)cc4C3O2)CC1` (centres unmarked) [Compound 79], for which the IC50 in experiment [1] was 4.79 nM; in experiment [2], 51.3 nM; in experiment [3], 44.7 nM; in experiment [4], more than 10000 nM.
As to `Fc1ccc2c(c1)C1OC(CN3CCC(N4CCCCC4)CC3)CC1c1ccccc1C2` (centres unmarked) [Compound 172], the IC50 is 15.1 nM in experiment [1], 15.8 nM in experiment [2], 43.7 nM in experiment [3] and 6760 nM in experiment [4].
In the same order, the values of `O=C(Nc1ccc(F)c(Cl)c1)C1CCN(CC2CC3c4ccccc4Cc4ccc(F)cc4C3O2)CC1` (centres unmarked) [Compound 190] are less than 10 nM, 2.75 nM, 47.9 nM and more than 10000 nM.
In the same order, the values of `Fc1ccc2c(c1)[C@@H]1O[C@@H](CN3CCN(c4cccc(C(F)(F)F)n4)CC3)C[C@@H]1c1ccccc1C2` [Compound 119] are 10.2 nM, 51.3 nM, 158 nM and 4070 nM.
For `O=C(OC1CCN(CC2CC3c4ccccc4Cc4ccc(F)cc4C3O2)C1)c1ccc(F)cc1F` (mixture of isomers) [Compound 17], the IC50 in experiment [1] is 5.75 nM; in experiment [2] it was 4.68 nM; in experiment [3], 6.03 nM; in experiment [4], 1740 nM.
Turning to `CSCCNC(=O)N1CCN(CC2CC3c4ccccc4Cc4ccc(F)cc4C3O2)CC1` (centres unmarked) [Compound 87], the IC50 in experiment [1] is 1.26 nM; in experiment [2] it was 3.09 nM; in experiment [3] it was 25.7 nM; in experiment [4], 5890 nM.
Consider `O=C(NCc1cccc(C(F)(F)F)c1)N1CCN(CC2CC3c4ccccc4Cc4ccc(F)cc4C3O2)CC1` (centres unmarked) [Compound 101], for which the IC50 in experiment [1] was 5.75 nM; in experiment [2], 12 nM; in experiment [3], 17.4 nM; in experiment [4], 8910 nM.
